According to article PMC9046208, “Foldamers reveal and validate therapeutic targets associated with toxic α-synuclein self-assembly” (Nature Communications, 2022):

Experiments:
NL5901 = test: Motility (activity counts, WMicroTracker ARENA) of C elegans NL5901; format: in vivo; settings: NL5901, 15 µM SK-129 at the larval stage
Procedure: The assay was carried out based on a previous protocol[57] with slight modifications. On day one, N2 and NL5901 strains were synchronized through the bleaching process involving egglay and the incubation of the eggs at an ambient temperature (~23 °C) on a solution of 3 mL NGM media in 60 mm culture plates (CytoOne, USA Scientific, Ocala, FL). The plates were seeded with 300 µL OP50 at an O.D. of 0.5 for 30 h. Simultaneously, a solution of 15 µM SK-129 (Stock solution concentration = 10 mM in DMSO) was made in M9 buffer and added to two sterilized 35 mm NGM solid media plates (Fisher Scientific, Pittsburgh, PA). The plates were already containing 2 mL of NGM solid media and 75 µM Fluorodeoxyuridine (FUDR) to prevent offspring in the worms. On day two, M9 buffer was used to transfer the worms from 60 mm NGM plates into 35 mm FUDR and SK-129 containing solid media plates (Fisher Scientific, Pittsburgh, PA) and incubated up to day three on these plates. On day four, liquid media was prepared according to the previous protocol[69] with some modifications. […] On day five, motility assay was conducted for worms under different conditions in duplicate using a WMicroTracker Arena plate reader (Phylumtech, Argentina) at ~23 °C for 1 h per day over a period of 12 days. […]

[1] = biological target: T1, αS aggregation in the presence of LUVs (DOPS) (Homo sapiens, UniProt P37840); test: Lipid (LUVs, DOPS) catalyzed αS aggregation, ThT; format: biochemical; settings: equimolar ratio
T1 construct: made in house; host or cells: Escherichia coli BL21(DE3), periplasm
Procedure: The aggregation kinetics of αS was monitored using ThT fluorescence assay (λex = 450 nm and λem = 485 nm). To study the aggregation kinetics of αS, the ThT dye at a final concentration of 50 μM was added to 100 μM αS solution in the aggregation buffer (1 x PBS buffer) with and without various concentrations of SK-129 in a Costar black 96–well plate (Corning Inc., Kennebunk, ME). The small molecules were dissolved in dimethyl sulfoxide (DMSO; final DMSO concentration = 0.5%, v/v). The final volume in each well was 140 μL. The plate was incubated at 37 °C with 16 min shaking (434 rpm) and 44 min without shaking in an Infinite M200PRO plate reader (Tecan, Männedorf, Switzerland) and fluorescence was recorded after every hour. We used two methods to quantify the effect of molecules on the aggregation of αS; either we have reported the t50 (time required to reach 50% fluorescence of ThT), which was extracted by fitting the ThT curve as a sigmoidal fit or the absolute ThT fluorescence intensity was reported. […] In the second method, we determined the final ThT fluorescence intensity for the aggregation of αS/Aβ42(with or without ligands) as an average of three separate experiments. […]
lipid-free and lipid-catalyzed aggregation of αS was monitored after 7 days. […]
equimolar ratio after four days. The data were expressed as mean and the error bars report the […]

effect on lipid catalyzed aggregation of αS [1]: wholly inhibited
Structure (SMILES): COC(=O)c1cc(OCC(=O)O)c2cccc(NC(=O)c3cc(OC(C)C)c4cccc(NC(=O)c5cc(OCC(=O)O)c6cccc(NC(=O)c7cc(OC(C)C)c8cccc([N+](=O)[O-])c8n7)c6n5)c4n3)c2n1 [SK-129]
overall activity (motility) (NL5901): significant improvement in the overall activity
